One assay concerns C57BL/6J mice. The experiment in a line: tail suspension test in C57BL/6J mice. Format: in vivo. Here is the method: The tail suspension test is a variant of the “behavioral despair” forced swimming test in which immobility is induced by suspending an animal by the tail (Steru et al., 1985). […] C57BL/6 mice ([…] 21-25g) were housed, ten per cage, in light controlled chambers (12 hr. light/12 hr. dark cycle-lights on at 08.00 hr., off at 20.00 hr.) with free access to food and water. Each animal was tested in a chamber made out of white non-transparent plastics. The C57BL/6J mice are suitable animals for such a study since no enzymes of melatonin biosynthesis have been found in the pineal glands of this strain of mice (Ebihara et al., 1986). Therefore, the observed effects could not be attributed to melatonin. The chamber was 17 cm W×25 cm H×15 cm D with a hook (4 cm) attached to the center of the ceiling. There was no front wall to allow for the observation of the mouse behavior. The mouse was hung on a hook by an adhesive tape placed 15 mm from the extremity of its tail. The animal was positioned with its stomach towards the investigator to assure the observation of the total immobility. The distance between the floor of the chamber and the nose of the animal was 10 cm. Immobility was scored as a sum of the time periods during which the animal hung passively and motionless for at least 2 sec. The total period of observation was 6 min. Experiments were conducted between 10.00 hr. and 14.00 hr. in a quiet room. The source of the light (50 W fluorescent bulb) was positioned 2 m above the experimental chamber. Baseline, control experiments were conducted several days before the actual experiments. Only those animals whose cumulative duration of immobility during the 6 min. observation was no less than 100 sec. were selected for further experiments. Three animals were tested simultaneously. Each experimental group was composed of at least nine animals. […] Nifedipine was injected in a dose (5 mg/kg, i.p.) which, by itself, has no effect on the duration of immobility ([…] and Oxenkrug, 1998). […] Results were expressed as mean±S.D. (sec.) and statistically treated by ANOVA and Student t-test.

Assay [1] has as its target T1, MT-3 melatonin sites of hamster brain (Mesocricetus auratus, UniProt A0ABM2YAB8).
T1 construct: MT-3 melatonin sites of hamster brain; host or cells: hamster brain
T1 sequence (A0ABM2YAB8 1-231): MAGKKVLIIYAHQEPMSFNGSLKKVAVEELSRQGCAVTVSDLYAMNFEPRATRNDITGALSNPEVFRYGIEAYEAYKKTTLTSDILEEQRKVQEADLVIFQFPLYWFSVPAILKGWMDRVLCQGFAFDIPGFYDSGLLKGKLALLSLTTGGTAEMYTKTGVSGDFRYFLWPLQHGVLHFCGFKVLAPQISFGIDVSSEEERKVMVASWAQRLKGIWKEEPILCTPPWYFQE
Conditions: cited from earlier work.

For assay [2], the system named is other melatonin receptors. Conditions: cited from earlier work.
In a further assay the test system is mouse. Conditions: mouse tail suspension test; cited from earlier work.

Here are results for three molecules from US20010047016A1, “Method for treating depression” (priority 2000, published 2001).

Regarding `COc1cc2nc(N3CCN(C(=O)c4ccco4)CC3)nc(N)c2cc1OC` [Prazocin, reference compound], the duration of immobility entry in the assay on C57BL/6J mice (prazocin 0.5 mg/kg alone) is “did not affect the duration of immobility”. The “effect on decrease of immobility induced by 5-MCA-NAT” value in the assay with C57BL/6J mice (prazocin 0.5 mg/kg injected 15 min before 5-MCA-NAT 50 mg/kg) was “prevented decrease of immobility”.

For `COC(=O)Nc1ccc2[nH]cc(CCNC(C)=O)c2c1` [5-MCA-NAT, 5-methoxy-carbonylamino-N-acetyltryptamine], the duration of immobility result is on record as “did not affect the duration of immobility” with C57BL/6J mice (5-MCA-NAT 10 mg/kg i.p., 30 min before testing, 6 min observation); “decreased the duration of immobility” with C57BL/6J mice (5-MCA-NAT 25 mg/kg i.p., 30 min before testing, 6 min observation); “decreased the duration of immobility” in the assay with C57BL/6J mice (5-MCA-NAT 50 mg/kg i.p., 30 min before testing, 6 min observation); “decreased the duration of immobility” in the assay with C57BL/6J mice (combination: 5-MCA-NAT 10 mg/kg i.p. with nifedipine 5 mg/kg i.p. injected 15 min after). In addition, the “affinity for MT-3 melatonin sites” value in assay [1] is “high affinity”. The “affinity or efficacy for other melatonin receptors” value in assay [2] is listed as “low affinity or efficacy”.

With `COc1ccc2[nH]cc(CCNC(C)=O)c2c1` [Melatonin, N-acetyl-5-methoxytryptamine], the antidepressant-like activity result in the assay with mouse is “antidepressant-like activity”.
